We go through 103 compounds from ChEMBL document CHEMBL3507680, “University of Dundee, Gates Library screen for HepG2 cell viability”.

This series in a line: Human HepG2 cell viability assay in 384 well format. The class given is toxicity, cell-based. Also noted: dose 125 nL, time 70.5 hour; concentration not given beside the values. The conditions noted are these: HepG2 cells, read-out: Inhibition.
On to `O=C(COc1ccccc1NCc1ccc(F)cc1)N1CCOCC1`, for which the cytotoxicity at 70.5 h was -20.5%.
The figure for `COc1ccc(C(=O)CCc2nc(C3CC3)no2)cc1F` is -13.6%; for `NC(=O)c1ccc(OCC(=O)N2CCCC2c2ccc[nH]2)cc1` (stereo not drawn) it is 42.3%.
The value for `O=C(Cn1ncc2ccccc21)Nc1ccnn1CC1CCOC1` (stereo not drawn) was -23.1%.
The figure for `O=C1NC(c2cnc(C3CCC3)s2)Nc2ccccc21` (stereo not drawn) is -9.55%; for `Cc1cc(NC(=O)NCC2(O)CCCC2)ccn1` it is -14%.
Take `CN(Cc1cnccn1)S(=O)(=O)c1ccc(C(F)(F)F)nc1`: the cytotoxicity at 70.5 h was 36.5%.
The value for `CC(C)c1noc(CCNC(=O)N2CCSC(C(C)C)C2)n1` (stereo not drawn) was -3.03%.
The figure for `Cc1nnnn1-c1cc(NCc2cc(C#N)ccc2F)ccc1F` is -10.8%.
The value for `COC(=O)CCN(C)Cc1cc(Br)cs1` was -21.1%; that for `CC(C)c1noc(CCC(=O)N2CCSCC2)n1` was -18.8%.
As to `CCN(C(C)=O)C(c1ccc(Cl)cc1)c1ccccn1` (stereo not drawn), the cytotoxicity at 70.5 h is -14.6%.
Consider `COCCC1(CNC(=O)Nc2ccnc(C)c2)CCCC1`, for which the cytotoxicity at 70.5 h is -20.4%.
The value for `CC1CN(C)CCN1Cc1cccc(C(=O)NCc2ccco2)c1` (stereo not drawn) was 27.4%; that for `Cc1ccc(N2CCCC(N3CCC(CO)CC3)C2=O)cc1` (stereo not drawn) was 12.9%; that for `CCCN1CCC(C(=O)NCCN(CC)c2ccccc2C)CC1` was 17.6%.
Take `Cn1ncc2cnn(CC(O)COc3cccc4[nH]ccc34)c2c1=O` (stereo not drawn): the cytotoxicity at 70.5 h was 39.5%.
The figure for `O=C(NCCCOCC1CC1)Nc1ccc(F)cc1` is 0.857%; for `COc1ccc(C)cc1NC(=O)CNc1ccn(CC(N)=O)n1` it is -9.21%; for `CS(=O)(=O)N1CCN(C(=O)c2[nH]c3ccc(Cl)cc3c2Cl)CC1` it is -6.15%.
With `COc1cc(Cl)c(C)cc1NC(=O)CNc1ccn(CC(N)=O)n1`, the cytotoxicity at 70.5 h is -7.27%.
The value for `CC(=O)N1CCN(C(=O)C(C)Nc2ccc3ncsc3c2)CC1` (stereo not drawn) was 0.285%.
Turning to `CNC(=O)NC(=O)COc1c(C(C)=O)ccc(Cl)c1Cl`, the cytotoxicity at 70.5 h is -9.38%.
For the compound `CC(=O)c1ccc(Cl)c(Cl)c1OCC(=O)NC(C)C`, the cytotoxicity at 70.5 h was -6.15%.
Consider `CNC(=O)COc1c(C(C)=O)ccc(Cl)c1Cl`, for which the cytotoxicity at 70.5 h was -8.98%.
As for `CC(=O)c1cccc(NC(=O)NCCOCC2CC2)c1`, the cytotoxicity at 70.5 h was -6.67%.
For the compound `O=C(NCc1ccco1)c1cccc(CN2CCCC2CO)c1` (stereo not drawn), the cytotoxicity at 70.5 h was -8.88%.
The figure for `CC(C(=O)NC1CC1)S(=O)(=O)c1cc2c(cc1Cl)OCCO2` (stereo not drawn) is -8.64%.
As for `CCn1ccnc1SCCn1cnc2ccsc2c1=O`, the cytotoxicity at 70.5 h is -10%.
The figure for `CC(C)NC(=O)C(C)S(=O)(=O)c1cc2c(cc1Cl)OCCO2` (stereo not drawn) is -7.06%; for `COc1cncc(N2CCN(Cc3ccncc3Cl)CC2)n1` it is -9.33%; for `Cc1nsc(NCc2ccc(CS(=O)(=O)NC(C)C)cc2)n1` it is -9.39%.
The value for `Cn1cc(CNc2cnn(CC3CCCO3)c2)c(-c2ccncc2)n1` (stereo not drawn) was 4.43%; that for `Cc1ccc(C)c(OCC(O)Cn2ncc3cnn(C)c(=O)c32)c1` (stereo not drawn) was 6.69%; that for `Cc1nsc(NCc2ccc(S(=O)(=O)N(C)C(C)C)cc2)n1` was 16.6%.
In the case of `COC(=O)C1CCCCN1Cc1cccc(C(=O)NCc2ccco2)c1` (stereo not drawn), the cytotoxicity at 70.5 h was -10.4%.
The value for `CC(C)OCCOCc1cccc(NC(=O)N2CCCC(O)C2)c1` (stereo not drawn) was -9.87%.
The value for `COc1ccc(CNC2CCN(c3ccccc3)C2)c(OC)c1OC` (stereo not drawn) was 19.7%; that for `COc1cncc(N2CCN(Cc3ccco3)CC2)n1` was -12.1%; that for `CCN(CCNC(=O)C1CCN(C(C)=O)CC1)c1ccccc1C` was -12.4%.
Take `CCc1nc(CN2CCN(C(=O)c3csc(C(C)C)n3)CC2)no1`: the cytotoxicity at 70.5 h is 33.2%.
The figure for `Cc1ccccc1CS(=O)(=O)CC(=O)N(C)Cc1cccc(F)c1` is -6.34%; for `Cc1noc(C)c1CS(=O)(=O)CC(=O)N(C)Cc1cccc(F)c1` it is -3.7%.
The figure for `CC(=O)NC1(C(=O)N(C)Cc2c(C)noc2C)CCCCC1` is 20.8%.
The value for `COc1ccccc1N1CCC(CNS(=O)(=O)c2cccs2)C1` (stereo not drawn) was -6.04%; that for `CC(C)C(=O)N1CCC(NCc2c(C(C)C)nn(C)c2N(C)C)CC1` was -5.89%; that for `O=C1OCCN1CCCN1CCCC1c1ccc(O)cc1` (stereo not drawn) was -3.89%.
`COC(=O)C(NC(=O)COC1CCCCC1)c1ccccc1` (stereo not drawn): the cytotoxicity at 70.5 h came out at 5.11%.
The value for `CNC(=O)C(C)S(=O)(=O)Cc1csc(-c2cccs2)n1` (stereo not drawn) was -7.57%; that for `CCN1CCN(c2ccc(C(=O)NCCn3ccnc3)cc2F)CC1` was -3.77%; that for `CN(C(=O)CN1CCc2nn(C)c(=O)cc2C1)c1nccs1` was -4.13%.
The figure for `CCCn1nc2c(cc1=O)CN(CC(=O)N(C)c1nccs1)CC2` is -4.23%.
As for `Cc1cc(C(=O)NS(=O)(=O)Cc2ccon2)c(C)n1C(C)C`, the cytotoxicity at 70.5 h was -4.61%.
As to `CNC(=O)C1CCCN(C(=O)NCCC2Cc3ccccc3C2)C1` (stereo not drawn), the cytotoxicity at 70.5 h is -1.76%.
The figure for `Cc1cc(C(=O)NS(=O)(=O)Cc2ccon2)c(C)o1` is -3.93%; for `COCc1nc(C(=O)N2CCN(Cc3ccsc3)CC2)cs1` it is -0.448%.
The figure for `COCCN1CCC(NCc2c(C(C)C)nn(C)c2N(C)C)CC1` is 24.2%; for `CC(C)c1nn(C)c(N(C)C)c1CNC1CCN(CC2CC2)CC1` it is 0.338%; for `c1cc(CN2CCSC3(CCCCC3)C2)no1` it is -1.3%.
The value for `c1cc(CN2CCOC3(CCCC3)C2)no1` was -2.72%; that for `COc1ccccc1N1CCC(CNCc2c(C)nn(C)c2OC)C1` (stereo not drawn) was 0.53%; that for `CC(=O)N1CCCN(C(C)c2ccc(Br)cc2)CC1` (stereo not drawn) was 17.2%.
On to `CCCc1nc(CNC2(c3nccs3)CCCC2)cs1`, for which the cytotoxicity at 70.5 h came out at 4.59%.
As for `c1cc(CN2CCCC2)ccc1CNc1cncc2nnnn12`, the cytotoxicity at 70.5 h was -4.34%.
The value for `c1cc(N2CCSCC2)ccc1CNc1cncc2nnnn12` was -12.4%.
The figure for `c1ccc(CN2CCCC2)c(CNc2cncc3nnnn23)c1` is -7.51%; for `CN(CC(N)=O)C(=O)c1csc(Br)c1` it is -7.59%; for `CC(C)(NC(=O)c1ccc(-c2ccccc2F)s1)C(N)=O` it is 12.6%.
The value for `COc1cccc(CN(C)S(=O)(=O)N2CCOCC2)c1` was 2.16%; that for `CS(=O)(=O)NCC1CCCN(C(=O)Nc2cccnc2N2CCCC2)C1` (stereo not drawn) was -0.725%.
For `CS(=O)(=O)NCC1CCCN(C(=O)Nc2ccccc2Cl)C1` (stereo not drawn), the cytotoxicity at 70.5 h amounted to 1.65%.
On to `O=C(NCc1ccc(OCC2CC2)nc1)c1c(F)cccc1F`, for which the cytotoxicity at 70.5 h was -3.71%.
The value for `CN(Cc1cnn(C)c1)C(=O)c1ccc(=O)n(C)n1` was -1.81%; that for `CS(=O)(=O)NCC1CCCCN1C(=O)Nc1cccnc1N1CCCC1` (stereo not drawn) was 39.8%.
The figure for `Cc1ccc(S(=O)(=O)NC(=O)c2c(C)noc2C(C)C)cc1C` is 0.282%.
The figure for `Cc1cc(C2CCCN(C(=O)c3c(C)noc3C)C2)n[nH]1` (stereo not drawn) is -5.28%; for `CC(NC(=O)c1nc(=O)[nH][nH]1)c1ccc(OCC2CC2)c(F)c1` (stereo not drawn) it is 29.1%.
As to `COCCn1ccc(NC(=O)Nc2ccc(C(N)=O)c(F)c2)n1`, the cytotoxicity at 70.5 h worked out at 13.6%.
The figure for `COCC(=O)N(C)Cc1cccc(Cl)c1` is 38.1%; for `CN1N=C(C(=O)N(Cc2ccco2)C2CC2)CCC1=O` it is -9.82%.
The value for `CCOc1nnc(CN(C)C2CCCN(c3cccnn3)C2)s1` (stereo not drawn) was 3.52%; that for `CC1CN(CC(=O)NC(=O)NCc2ccccc2)CCO1` (stereo not drawn) was 7.19%.
The value for `CC(COc1ccc(F)cc1F)NC(=O)NCCN1CCOCC1` (stereo not drawn) was -16%; that for `CCc1noc(C(C)N2CCN(c3ccc(C#N)cc3F)CC2)n1` (stereo not drawn) was -24.4%.
Take `Cc1cc(N2CCN(CC(=O)N(C)C)CC2)nc(-c2ccncc2)n1`: the cytotoxicity at 70.5 h was 27.8%.
The value for `NC(=O)C(CNC(=O)Cc1ccc(F)cc1)Cc1ccc(F)cc1` (stereo not drawn) was -7.46%; that for `CCn1cnnc1C1CCN(C(=O)c2ccc3cc[nH]c3c2)CC1` was 5.48%; that for `Cc1cc(N2CCN(CCO)CC2)nc(-c2ccncc2)n1` was 0.374%.
Consider `CC(C)NC(=O)Nc1ccc(CS(=O)(=O)C(C)(C)C)cc1`, for which the cytotoxicity at 70.5 h was -12.3%.
Consider `CCOC(=O)c1c(NC(=O)CN2CCN(C(C)=O)CC2)sc2c1CCC2`, for which the cytotoxicity at 70.5 h was -0.965%.
Turning to `CCc1nc2n(n1)CC(NCc1nc(C)ccc1O)CC2` (stereo not drawn), the cytotoxicity at 70.5 h was -8.85%.
For the compound `Cc1ccc(CC2CCCN2CC(=O)NCc2ccccn2)cc1` (stereo not drawn), the cytotoxicity at 70.5 h was 15.4%.
The value for `CCOc1cccc(C(=O)NCCC(=O)Nc2ccncc2)c1` was -19.4%; that for `CC(C)Cc1cc(C(=O)NCc2nnc[nH]2)[nH]n1` was -13.4%; that for `Cc1cc(C(=O)N2CCCC(n3ccnc3C)C2)c(C)s1` (stereo not drawn) was -11.2%.
The value for `CC(C)c1nc2n(n1)CC(NCc1ccncc1)CC2` (stereo not drawn) was -16.7%.
As to `CCc1cnc(CN(C)C2CCN(CCc3ccccn3)C2)o1` (stereo not drawn), the cytotoxicity at 70.5 h came out at 10.2%.
On to `CN(C)C(C)(C)CNC(=O)C(C)(C)c1ccccc1F`, for which the cytotoxicity at 70.5 h was 4.83%.
The value for `Cc1nc(CN2CCCC(N(C)CCc3cccs3)C2)no1` (stereo not drawn) was 8.18%; that for `COc1ccc(CNC(=O)C2(C#N)CCCC2)cc1` was 12.6%.
The value for `CN(CCCC#N)C1CCCN(Cc2noc(C3CC3)n2)C1` (stereo not drawn) was 9.15%.
The figure for `COCCN1C(=O)CC(N2CCN(c3ccc(OC)cc3)CC2)C1=O` (stereo not drawn) is -7.1%.
`CC(C)c1nn(C)c(N(C)C)c1CNC1CCN(C2CC2)CC1`: the cytotoxicity at 70.5 h was -2.94%.
